In paper PMC10470491, “Modulation of the functional interfaces between retroviral intasomes and the human nucleosome” (mBio, 2023):
Entries after “also recorded” stand apart in the source; their conditions may differ. *1 amine or outer side, *2 acyl side, *3 side chain or, on linkers, in order; H or OH if unused. Where a SMILES comes first, the peptide text is derived from it. Bridges are numbered along the chain shown (N, C = ends). Roman numbers before positions name the chains, in order. [ ]: non-standard residue; d: D form. Actinocin(9to1) = Cc1c2oc3c(C)ccc(C(=O)[*:1])c3nc-2c(C(=O)[*:2])c(N)c1=O; NMeV = CN[C@H](C(=O)O)C(C)C; Sar = CNCC(=O)O

Tests used:
[1] = system: PFV intasome/nucleosome complex; assay: AlphaLISA PFV intasome/nucleosome interaction assay; format: binding, prototype foamy virus (PFV); human mononucleosome; settings: for IC50: intasome/nucleosome AS assay, Fig. 3E; for IC50 / inhibition of intasome/nucleosome association in AS: increasing drug concentrations; for selection as intasome/nucleosome modulator in the OncoSET screen: 25 µM
Protocol: AlphaLISA is a technology particularly suitable for bimolecular inhibitor screening assays using protein-protein interactions with purified recombinant proteins. The AlphaLISA assay development was performed in 96-well 12 area Alphaplate (reference 6052340, PerkinElmer, Waltham, MA, USA) with a final reaction volume of 40 µL. Cross-titration experiments of biotinylated MN (0–50 nM) against DIG-intasome (0–100 nM) were carried out to establish optimal assay concentrations for the binding assay. Ten microliters of each protein were diluted in the binding buffer 50 mM BisTris-propane pH 7, 100 mM NaCl, 0.1% (v/v) Tween-20, 0.1% (w/v) BSA, and 1 mM dithiothreitol. The plate was incubated at RT for 2 h in rotation. Ten microliters of anti-DIG acceptor beads (PerkinElmer, reference AL113) were then added, and after 1 h of incubation at RT with rotation, 10 µL of streptavidin […] (Perkin Elmer, reference 6760002) was mixed to the wells. This established a final concentration of 20 µg/mL for each bead. The plate was then incubated for 1 h at RT in the dark before the AlphaLISA signal was detected using an EnSpire Multimode Plate Reader (PerkinElmer). Negative control with binding buffer or only with one of the complexes was used to control the assay quality. Data were analyzed with GraphPad Prism 5.01 software. To evaluate tolerance for DMSO, the assay was performed as described above with an addition of 0.15–20% (v/v) of DMSO during the binding step. For the competition experiment, increasing concentrations of untagged intasome were titrated out in the 1-nM DIG-intasome/biotinylated nucleosome interaction assay.
For the AlphaLISA screening assay with the NIH OncoSET library, the binding conditions were optimized for use in 384-well plate (Optiplate, reference 6007290, PerkinElmer) with the same concentrations for complexes and beads in a final reaction volume of 20.5 µL (2.5% DMSO final concentration). The screening was first carried out with 25 µM of each compound pre-incubated for 1 h with 1 nM intasome/nucleosome complexes. Compounds were selected as inducing at least 50% decrease of the AlphaLISA signal control condition, and their inhibitory effect was further tested using dose-response curves. For compounds validation, counter select assay was performed using a short DNA fragment carrying a biotin and a DIG tag on each side. The AlphaLISA signal was monitoring using increasing concentrations of the double-tagged DNA, and the selected compounds were tested in optimized conditions at 10 µM. Any compound that causes decreased signal means that it interferes with AlphaLISA readout, and therefore, it is not relevant to this assay.

mononucleosome (MN) = assay: histone eviction assay (EMSA / SDS-PAGE); format: biochemical, human; settings: 10 µM or increasing concentrations
PFV intasome [2] = target: T1, PFV intasome (Human spumaretrovirus, UniProt P14350); assay: biochemical; format: biochemical, prototype foamy virus (PFV); set-up: Briefly, PFV IN and its cognate vDNA were mixed, and assembled intasomes were purified by size exclusion chromatography; octamers produced in E. coli; settings: 30 nM FITC PFV intasome, MN, drugs 0–25 µM
Protocol: Integration assays using purified assembled intasomes were performed as followed: either 100 ng of naked DNA or 100 ng of DNA assembled on 100 ng of histone octamers (24 nM final concentration) was incubated with 30 nM final concentration of purified intasome in 100 mM NaCl, 20 mM BTP pH 7, 12.5 mM MgSO4 (for PFV intasome), or in 20 mM HEPES pH 7, 7.5% DMSO, 8% PEG, 10 mM MgCl2, 20 µM ZnCl2, 100 mM NaCl, 5 mM DTT final concentration (for HIV-1 intasome) in a final volume of 40 µL. The mix was then incubated at 37°C for 15 min and 1 h, respectively. Then, reaction was stopped by the addition of 5.5 µL of a mix containing 5% SDS and 0.25 M EDTA and deproteinized with proteinase K (Promega) for 1 h at 37°C. Nucleic acids were then precipitated with 150 µL of ethanol overnight at −20°C. Samples were then spun at top speed for 1 h at 4°C, and the pellets were dried and then resuspended with DNA loading buffer. Integration products were separated on an 8% native polyacrylamide gel.

PFV intasome [3] = target: T1, PFV intasome; assay: in vitro PFV integration into naked plasmid pBSK-601-Zeo DNA; format: biochemical, prototype foamy virus (PFV); set-up: Briefly, PFV IN and its cognate vDNA were mixed, and assembled intasomes were purified by size exclusion chromatography; made in house; settings: 10 µM
Protocol: MNs were assembled as previously described for chromatin assembly ([7], [8]). Briefly, 5 µg of biotinylated 147 bp Widom fragment (TEBU-bio) were mixed with an excess of 10 µg of human native recombinant octamers produced in E. coli [purchased from the “Histone Source” Protein Expression and Purification (PEP) facility from the Colorado State University, https://histonesource-colostate.nbsstore.net] in Tris-HCl pH 7.7 and 2 M NaCl in 100 µl final volume. Salt dialysis was then performed to decrease the salt concentration to 0 using slide-A-Lyzer MINI dialysis device, 7 k MWCO (Fisher Scientific). Assembly was checked by electro-mobility shift assay (EMSA) on 8% native PAGE stained with SYBR safe and SDS-PAGE stained with instant blue. Eviction assays of the assembled nucleosome were incubated with increasing concentrations of drugs and then analyzed by EMSA or SDS-PAGE of the supernatant after their capture using streptavidin beads (MyONE T1 invitrogen). Naked DNA substrates (pBSK-601-Zeo vector plasmid containing 601 Widom repetitions or 147 bp 601 DNA fragment) used for comparative integration assays were treated as for nucleosome assembly. […]

[4] = system: HIV-1 intasome (vDNA•IN•LEDGF/p75); assay: in vitro HIV-1 concerted integration onto mononucleosome; format: biochemical; settings: MN
[5] = OncoSET screen, 25 µM drug, 1 nM of each partner

| Compound | decrease in the AS signal [1, 5] | IC50 [1] [nM] | effect on the intasome/nucleosome AS signal ([1]; retest at 10 µM, MN) | histone eviction / MN dissociation (mononucleosome (MN)) | inhibition of PFV integration into MNs (PFV intasome [2]) | other results |
| --- | --- | --- | --- | --- | --- | --- |
| CC(=O)[C@]1(O)Cc2c(O)c3c(c(O)c2[C@@H](O[C@H]2C[C@H](N)[C@H](O)[C@H](C)O2)C1)C(=O)c1ccccc1C3=O [Idarubicin, idarubicin] | at least 50% | 450 ± 22 | strong inhibitory effect | strong displacement of histones from the MN | able to inhibit PFV integration into MNs |  |
| O=C1c2c(O)ccc(O)c2C(=O)c2c(NCCNCCO)ccc(NCCNCCO)c21 [Mitoxantrone, mitoxantrone] | at least 50% | 380 ± 50 | strong inhibitory effect |  | did not show any inhibitory effect on integration | inhibition of PFV integration into plasmid pBSK-601-Zeo DNA (PFV intasome [3]): remained inefficient |
| CCCCC(=O)OCC(=O)[C@]1(O)Cc2c(O)c3c(c(O)c2[C@@H](O[C@H]2C[C@H](NC(=O)C(F)(F)F)[C@H](O)[C@H](C)O2)C1)C(=O)c1c(OC)cccc1C3=O [valrubicin] |  |  |  |  |  | selection as intasome/nucleosome modulator in the OncoSET screen ([1]; OncoSET screen): inefficiency |
| N.N.[Cl][Pt][Cl] [cisplatin] |  |  |  |  | only a slight inhibition of integration into nucleosome |  |
| Cc1c2oc3c(C)ccc(C(=O)N[C@@H]4C(=O)N[C@H](C(C)C)C(=O)N5CCC[C@H]5C(=O)N(C)CC(=O)N(C)[C@@H](C(C)C)C(=O)O[C@@H]4C)c3nc-2c(C(=O)N[C@@H]2C(=O)N[C@H](C(C)C)C(=O)N3CCC[C@H]3C(=O)N(C)CC(=O)N(C)[C@@H](C(C)C)C(=O)O[C@@H]2C)c(N)c1=O [actinomycin D] (I: T[dV]P[Sar][NMeV] / II: T[dV]P[Sar][NMeV]; ester I:1-I:C, II:1-II:C; linker I:N-II:N via Actinocin(9to1)) |  |  |  |  |  | selection as intasome/nucleosome modulator in the OncoSET screen ([1]; OncoSET screen): lack of effect |
| COc1cccc2c1C(=O)c1c(O)c3c(c(O)c1C2=O)C[C@@](O)(C(C)=O)C[C@@H]3O[C@H]1C[C@H](N)[C@H](O)[C@H](C)O1 [Daunorubicin, daunorubicin] | at least 50% | 3240 ± 18 | strong inhibitory effect | strong displacement of histones from the MN | able to inhibit PFV integration into MNs |  |
| O=C1CCC(N2C(=O)c3ccccc3C2=O)C(=O)N1 (centres unmarked) [thalidomide] |  |  |  |  | did not show any effect |  |
| CC/C(=C(\c1ccccc1)c1ccc(OCCN(C)C)cc1)c1ccccc1 [Tamoxifen, tamoxifen] |  |  |  |  | inefficient in inhibiting integration | inhibition of intasome/nucleosome association in AS [1]: only a slight inhibition effect; inhibition of PFV integration into plasmid pBSK-601-Zeo DNA (PFV intasome [3]): remained inefficient |
| CC[C@@]1(O)C(=O)OCc2c1cc1n(c2=O)Cc2cc3c(CN(C)C)c(O)ccc3nc2-1 [topotecan] |  |  |  |  | did not show any effect |  |
| COc1cccc2c1C(=O)c1c(O)c3c(c(O)c1C2=O)C[C@@](O)(C(=O)CO)C[C@@H]3O[C@H]1C[C@H](N)[C@@H](O)[C@H](C)O1 [epirubicin] |  |  |  |  |  | selection as intasome/nucleosome modulator in the OncoSET screen ([1]; OncoSET screen): not selected as an intasome/nucleosome modulator; also recorded: inefficient in inhibiting the intasome/nucleosome complex |
| C=CC(=O)Nc1cc(Nc2nccc(-c3cn(C)c4ccccc34)n2)c(OC)cc1N(C)CCN(C)C [Osimertinib, osimertinib] | at least 50% |  |  |  |  | inhibition of intasome/nucleosome association in AS [1]: no inhibition in the concentration range used; decrease in the AS signal ([1]; retest at 10 µM, MN): 30–40% |
| COc1cccc2c1C(=O)c1c(O)c3c(c(O)c1C2=O)C[C@@](O)(C(=O)CO)C[C@@H]3O [Doxorubicinone, doxorubicinone] |  |  |  | could not dissociate the MN | inefficient in inhibiting the in vitro integration | inhibition of in vitro HIV-1 integration [4]: inefficient |
| COc1cccc2c1C(=O)c1c(O)c3c(c(O)c1C2=O)C[C@@](O)(C(=O)CO)C[C@@H]3O[C@H]1C[C@H](N)[C@H](O[C@@H]2CCCCO2)[C@H](C)O1 [Pirarubicin, pirarubicin] | at least 50% | 630 ± 20 | strong inhibitory effect | full shift of the nucleosomal DNA in addition to a strong MN dissociation | able to inhibit PFV integration into MNs |  |
